Values after ≈ are worked out from the molar mass of the structure shown.
Experiments:
Assay type in all cases: functional
Candida tropicalis [1] = assay: Antifungal activity against Candida tropicalis 159 after 24 hrs by broth microdilution assay; details: Candida tropicalis, 159, 24 h
Aspergillus fumigatus [2] = assay: Antifungal activity against Aspergillus fumigatus 231 after 48 hrs by broth microdilution assay; details: Aspergillus fumigatus, 231, 48 h
Candida tropicalis [3] = assay: Antifungal activity against Candida tropicalis 159 after 48 hrs by broth microdilution assay; details: Candida tropicalis, 159, 48 h
[4] = system: Trichophyton mentagrophytes; assay: Antifungal activity against Trichophyton mentagrophytes 445 after 120 hrs by broth microdilution assay; details: Trichophyton mentagrophytes, 445, 120 h
Candida albicans [5] = assay: Antifungal activity against Candida albicans ATCC 44859 after 48 hrs by broth microdilution assay; details: Candida albicans, ATCC 44859, 48 h
Lichtheimia corymbifera [6] = assay: Antifungal activity against Absidia corymbifera 272 after 48 hrs by broth microdilution assay; details: Lichtheimia corymbifera, 272, 48 h
[7] = system: Trichophyton mentagrophytes; assay: Antifungal activity against Trichophyton mentagrophytes 445 after 72 hrs by broth microdilution assay; details: Trichophyton mentagrophytes, 445, 72 h
Aspergillus fumigatus [8] = assay: Antifungal activity against Aspergillus fumigatus 231 after 24 hrs by broth microdilution assay; details: Aspergillus fumigatus, 231, 24 h
Lichtheimia corymbifera [9] = assay: Antifungal activity against Absidia corymbifera 272 after 24 hrs by broth microdilution assay; details: Lichtheimia corymbifera, 272, 24 h
Trichosporon asahii [10] = assay: Antifungal activity against Trichosporon asahii 1188 after 24 hrs by broth microdilution assay; details: Trichosporon asahii, 1188, 24 h
Nakaseomyces glabratus [11] = assay: Antifungal activity against Candida glabrata 20/I after 24 hrs by broth microdilution assay; details: Nakaseomyces glabratus, 20/I, 24 h
Candida albicans [12] = assay: Antifungal activity against Candida albicans ATCC 44859 after 24 hrs by broth microdilution assay; details: Candida albicans, ATCC 44859, 24 h
Trichosporon asahii [13] = assay: Antifungal activity against Trichosporon asahii 1188 after 48 hrs by broth microdilution assay; details: Trichosporon asahii, 1188, 48 h
Pichia kudriavzevii [14] = assay: Antifungal activity against Candida krusei E28 after 24 hrs by broth microdilution assay; details: Pichia kudriavzevii, E28, 24 h
Pichia kudriavzevii [15] = assay: Antifungal activity against Candida krusei E28 after 48 hrs by broth microdilution assay; details: Pichia kudriavzevii, E28, 48 h
Nakaseomyces glabratus [16] = assay: Antifungal activity against Candida glabrata 20/I after 48 hrs by broth microdilution assay; details: Nakaseomyces glabratus, 20/I, 48 h

| SMILES | MIC (Candida tropicalis [1]) [µM] | MIC (Aspergillus fumigatus [2]) [µM] | MIC (Candida tropicalis [3]) [µM] | MIC [4] [µM] | MIC (Candida albicans [5]) [µM] | MIC (Lichtheimia corymbifera [6]) [µM] | MIC [7] [µM] | MIC (Aspergillus fumigatus [8]) [µM] | MIC (Lichtheimia corymbifera [9]) [µM] | MIC (Trichosporon asahii [10]) [µM] | MIC (Nakaseomyces glabratus [11]) [µM] | MIC (Candida albicans [12]) [µM] | MIC (Trichosporon asahii [13]) [µM] | MIC (Pichia kudriavzevii [14]) [µM] | MIC (Pichia kudriavzevii [15]) [µM] | MIC (Nakaseomyces glabratus [16]) [µM] |
| --- | --- | --- | --- | --- | --- | --- | --- | --- | --- | --- | --- | --- | --- | --- | --- | --- |
| Cc1ccc(C(=S)NCc2ccc(C(C)(C)C)cc2)c(O)c1 | > 500 | > 500 | > 500 | > 500 | > 500 | > 500 | > 500 | > 500 | > 500 | > 500 | > 500 | > 500 | > 500 | > 500 | > 500 | > 500 |
| Oc1ccccc1C(=S)NCc1cccc(Cl)c1 | 125 (≈ 34.7 µg/mL) | 62.5 (≈ 17.4 µg/mL) | 125 (≈ 34.7 µg/mL) | 15.6 (≈ 4.34 µg/mL) | 125 (≈ 34.7 µg/mL) | 31.2 (≈ 8.68 µg/mL) | 7.81 (≈ 2.17 µg/mL) | 62.5 (≈ 17.4 µg/mL) | 31.2 (≈ 8.68 µg/mL) | 31.2 (≈ 8.68 µg/mL) | 125 (≈ 34.7 µg/mL) | 125 (≈ 34.7 µg/mL) | 31.2 (≈ 8.68 µg/mL) | 62.5 (≈ 17.4 µg/mL) | 125 (≈ 34.7 µg/mL) | 250 (≈ 69.4 µg/mL) |
| Cc1ccc(CNC(=S)c2ccccc2O)cc1 | 125 (≈ 32.2 µg/mL) | 250 (≈ 64.3 µg/mL) | 125 (≈ 32.2 µg/mL) | 15.6 (≈ 4.02 µg/mL) | 125 (≈ 32.2 µg/mL) | 31.2 (≈ 8.04 µg/mL) | 31.2 (≈ 8.04 µg/mL) | 125 (≈ 32.2 µg/mL) | 15.6 (≈ 4.02 µg/mL) | 31.2 (≈ 8.04 µg/mL) | 125 (≈ 32.2 µg/mL) | 62.5 (≈ 16.1 µg/mL) | 62.5 (≈ 16.1 µg/mL) | 62.5 (≈ 16.1 µg/mL) | 125 (≈ 32.2 µg/mL) | 125 (≈ 32.2 µg/mL) |
| Cc1ccc(CNC(=S)c2cc([N+](=O)[O-])ccc2O)cc1 | > 500 | 500 (≈ 151 µg/mL) | > 500 | 62.5 (≈ 18.9 µg/mL) | > 500 | 500 (≈ 151 µg/mL) | 62.5 (≈ 18.9 µg/mL) | 500 (≈ 151 µg/mL) | 500 (≈ 151 µg/mL) | 500 (≈ 151 µg/mL) | > 500 | 500 (≈ 151 µg/mL) | 500 (≈ 151 µg/mL) | > 500 | > 500 | > 500 |
| CC(C)(C)c1ccc(CNC(=S)c2ccccc2O)cc1 | > 500 | > 500 | > 500 | 15.6 (≈ 4.68 µg/mL) | > 500 | 62.5 (≈ 18.7 µg/mL) | 15.6 (≈ 4.68 µg/mL) | 250 (≈ 74.9 µg/mL) | 15.6 (≈ 4.68 µg/mL) | 250 (≈ 74.9 µg/mL) | > 500 | > 500 | 250 (≈ 74.9 µg/mL) | > 500 | > 500 | > 500 |
| Oc1cc(Cl)ccc1C(=S)NCc1ccc(Br)cc1 | 31.2 (≈ 11.1 µg/mL) | 7.81 (≈ 2.79 µg/mL) | 31.2 (≈ 11.1 µg/mL) | 1.95 (≈ 0.696 µg/mL) | 31.2 (≈ 11.1 µg/mL) | 1.95 (≈ 0.696 µg/mL) | 0.98 (≈ 0.35 µg/mL) | 7.81 (≈ 2.79 µg/mL) | 0.98 (≈ 0.35 µg/mL) | 7.81 (≈ 2.79 µg/mL) | 31.2 (≈ 11.1 µg/mL) | 15.6 (≈ 5.57 µg/mL) | 7.81 (≈ 2.79 µg/mL) | 3.9 (≈ 1.39 µg/mL) | 15.6 (≈ 5.57 µg/mL) | 31.2 (≈ 11.1 µg/mL) |
| Oc1ccc(Br)cc1C(=S)NCc1ccc(Cl)c(Cl)c1 | 31.2 (≈ 12.2 µg/mL) | 7.81 (≈ 3.05 µg/mL) | 31.2 (≈ 12.2 µg/mL) | 0.98 (≈ 0.383 µg/mL) | 31.2 (≈ 12.2 µg/mL) | 3.9 (≈ 1.53 µg/mL) | 0.98 (≈ 0.383 µg/mL) | 7.81 (≈ 3.05 µg/mL) | 3.9 (≈ 1.53 µg/mL) | 3.9 (≈ 1.53 µg/mL) | 31.2 (≈ 12.2 µg/mL) | 15.6 (≈ 6.11 µg/mL) | 7.81 (≈ 3.05 µg/mL) | 7.81 (≈ 3.05 µg/mL) | 15.6 (≈ 6.11 µg/mL) | 62.5 (≈ 24.4 µg/mL) |
